Experimental data as given in US20070092551A1, “Therapeutic agent” (TAKARA BIO INC., priority 2003, published 2007).

Legend:
3T3-L1 cells = test: Induction of adipocyte differentiation (amount of triglyceride biosynthesis); format: cell-based; conditions: Mus musculus, 3T3-L1, X=(S−N)/(P−N) of amount of triglyceride, P=insulin positive control, read-out: Action for Induction of Differentiation
Protocol: Induction of adipocyte differentiation was carried out by partially modifying the above-mentioned method of Rubin C. S. et al. In addition, as a test compound, a compound prepared in Examples mentioned above or a commercially available compound was used. 3T3-L1 cells (ATCC CCL-92.1) were suspended in a 10% fetal bovine serum (manufactured by Bio Whittaker)-containing Dulbecco's modified Eagle's medium (manufactured by Sigma, D6046) containing 200 μM ascorbic acid so as to have a density of 4×10^3 cells/mL, and the suspension was put in each well of a 12-well microtiter plate in an amount of 2 ml per well. The cells were cultured at 37° C. for 7 days in the presence of 5% carbon dioxide gas. On the seventh day, the medium was exchanged with a 10% fetal bovine serum (manufactured by Bio Whittaker)-containing Dulbecco's modified Eagle's medium containing 200 μM ascorbic acid and 0.25 μM dexamethasone, and a test compound dissolved in dimethyl sulfoxide in a concentration shown in each of Tables 16 to 19 was added to each well. Here, there were set a group with addition of 4 μL of an aqueous solution containing 5 mg/mL insulin (manufactured by TAKARA BIO INC.) as a positive control, and a group with addition of dimethyl sulfoxide as a negative control. After 45 hours, the medium was exchanged with a 10% fetal bovine serum-containing Dulbecco's modified Eagle's medium containing 200 μM ascorbic acid. A test compound, 2 μL of an aqueous solution containing 5 mg/mL insulin as a positive control, or dimethyl sulfoxide as a negative control was put to each well in the same concentration. The cells were cultured for additional 7 days. In addition, the medium was exchanged on after 2 days and after 5 days, and at that time, a test compound, 2 μL of an aqueous solution containing 5 mg/mL insulin as a positive control, or dimethyl sulfoxide as a negative control was put to each well in the same concentration.
The amount of triglyceride in the adipocytes was determined as an index of induction of differentiation into mature adipocytes, and also, as the evaluation of insulin-mimetic action.
After the termination of the culture, the medium was removed, and the cells were washed twice with a phosphate buffered saline. One milliliter of a solvent of hexane:isopropanol=3:2 was added to the cells. The mixture was allowed to stand at room temperature for 30 minutes, and thereafter the supernatant was collected. The procedures were repeated again, and 2 mL of the supernatant was concentrated to dryness. The precipitate was dissolved in 100 μL of isopropanol, and the amount of triglyceride contained in 10 μL of the solution was determined using a triglyceride E-test (manufactured by Wako Pure Chemical Industries, Ltd., code 432-40201). In addition, all the determinations were carried out twice. The action for induction of differentiation was calculated by the following calculation formula, and shown by four ranks of +++, ++, + and +/−. • S: Amount of triglyceride in the presence of a test compound; • N: Amount of triglyceride in the negative control; and • P: Amount of triglyceride in the positive control; X=(S−N)/(P−N) (Judgment of Action for Induction of Differentiation)

[1] = tested on: mature adipocytes (3T3-L1 cells); test: Enhancing action on glucose uptake (2-deoxyglucose) into mature adipocytes; format: cell-based; conditions: Mus musculus, 3T3-L1, X=(S−N)/(P−N) of 2-deoxyglucose uptake, P=insulin 1 μg/mL, read-out: Enhancing Action on Glucose Uptake
Protocol: The induction of differentation into nature adipocytes was carried out by partially modifying the above-mentioned method of Rubin C. S. et al. 3T3-L1 cells (ATCC CCL-92.1) were suspended in a 10% fetal bovine serum (manufactured by Bio Whittaker)-containing Dulbecco's modified Eagle's medium (manufactured by Sigma, D6046) containing 200 μM ascorbic acid so as to have a density of 4×10^3 cells/mL, and the suspension was put in each well of a collagen type I-coated 12-well plate (Iwaki Glass Co., Ltd., code 4815-010) in an amount of 2 mL per well. The cells were cultured at 37° C. for 7 days in the presence of 5% carbon dioxide gas. On the seventh day, the medium was exchanged with 2 mL of a 10% fetal bovine serum (manufactured by Bio Whittaker)-containing Dulbecco's modified Eagle's medium containing 200 μM ascorbic acid, 0.25 μM dexamethasone, 10 μg/mL insulin (manufactured by TAKARA BIO INC.) and 0.5 mM 3-isobutyl-1-methylxanthine (manufactured by nacalai tesque, 19624-86). After 45 hours, the medium was exchanged with 2 mL of a 10% fetal bovine serum-containing Dulbecco's modified Eagle's medium containing 200 μM ascorbic acid and 5 μg/mL insulin. The medium was exchanged on after 2 days and 5 days, and the cells were cultured for 7 days, to give mature adipocytes.
As the evaluation of the enhancing action on glucose uptake, and also as the evaluation of the insulin-mimetic action, the amount of 2-deoxyglucose uptake into mature adipocytes during the stimulation of the test compound in the adipocytes was determined. As a test compound, a compound prepared in the Examples mentioned above or a commercially available compound was used.
After the termination of the culture, the medium was removed, and the cells were washed twice with a 0.1% (w/v) bovine serum albumin (manufactured by Sigma, A8022)-containing Dulbecco's modified Eagle's medium. Thereafter, 1 mL of the same medium containing a test compound in a concentration shown in each of Tables 20 to 23 was put to each well. The cells were cultured overnight at 37° C. in the presence of 5% carbon dioxide gas. Here, a group without containing the test compound was set as a negative control. After the overnight culture, the cells were washed twice with a HEPES buffer (140 mM NaCl, 5 mM KCl, 2.5 mM MgSO4, 1 mM CaCl2, 20 mM HEPES-Na (pH 7.4)). The amount 0.9 mL of the buffer containing a test compound in the same concentration was added to each well. The cells were cultured at 37° C. for 75 minutes. During the culture, as a positive control, there was set a group with addition of insulin to the well without addition of a test compound at a point 45 minutes passed so as to have a final concentration of 1 μg/mL. Thereafter, 100 μL of a HEPES buffer containing 0.5 μCi/mL 2-deoxy-[1,2-^3H(N)]-glucose (manufactured by PerkinElmer Life Sciences Inc., NET549A) and 1 mM 2-deoxyglucose (manufactured by nacalai tesque, 10722-11) was added thereto. The cells were cultured at 37° C. for additional 10 minutes. After the termination of the culture, the supernatant was removed, and the cells were washed three times with a phosphate buffer cooled to 4° C. Thereafter, 0.5 mL of a 1% Nonidet P-40-containing phosphate buffer was added to lyse the cells, whereby 2-deoxy-[1,2-^3H(N)]-glucose subjected to uptake into the cells was eluted. The radioactivity was determined with a liquid scintillation counter LS6500 (manufactured by Beckmann) using 25 μL of the supernatant with Ultima Gold (manufactured by PerkinElmer Life Sciences Inc., 6013329) as a scintillation cocktail. The enhancing action on glucose uptake was calculated by the following calculation formula, and shown by four ranks of +++, ++, + and +/−. • S: Amount of 2-deoxyglucose uptake in the presence of a test compound; • N: Amount of 2-deoxyglucose uptake in the negative control; and • P: Amount of 2-deoxyglucose uptake in the positive control; X=(S−N)/(P−N) (Judgment of Enhancing Action for 2-Deoxyglucose Uptake)

COc1ccc(C(=O)/C=C/c2ccc(Cl)cc2)c(OC(C)=O)c1CC=C(C)C [Compound (C079), 4-chloro-2′-acetoxy-3′-prenyl-4′-methoxychalcone]
activation at 3 µM (3T3-L1 cells): 60 to 100% | activation at 10 µM (3T3-L1 cells): > 100% | activation at 3 µM [1]: > 100% | activation at 10 µM [1]: 60 to 100% | activation at 30 µM [1]: > 100%

COc1ccc(C(C)=O)c(O)c1CC=C(C)C [Compound (C026), 2′-hydroxy-3′-prenyl-4′-methoxyacetophenone]
activation at 1.3 µM (3T3-L1 cells; 1.3 μM): 30 to 60% | activation at 4 µM (3T3-L1 cells): 60 to 100% | activation at 13 µM (3T3-L1 cells): 60 to 100% | activation at 3 µM [1]: 15 to 30% | activation at 10 µM [1]: 30 to 60% | activation at 30 µM [1]: 30 to 60%

COc1ccc(C(=O)/C=C/c2ccc(OC(C)=O)cc2)c(OC(C)=O)c1C/C=C(\C)CCC=C(C)C [Compound (C064-1), 4,2′-diacetoxy-3′-geranyl-4′-methoxychalcone]
activation at 3 µM (3T3-L1 cells): > 100% | activation at 10 µM (3T3-L1 cells): > 100% | activation at 10 µM [1]: 60 to 100% | activation at 30 µM [1]: > 100%

COc1cc(O)c(C(C)=O)cc1CC=C(C)C [Compound (C027), 2′-hydroxy-4′-methoxy-5′-prenylacetophenone]
activation at 4 µM (3T3-L1 cells): 15 to 30% | activation at 13 µM (3T3-L1 cells): 30 to 60% | activation at 10 µM [1]: 15 to 30% | activation at 30 µM [1]: 30 to 60%

C=C(C)C(CC/C(C)=C/Cc1c(OC)ccc(C(=O)/C=C/c2ccc(O)cc2)c1O)OO (centres unmarked) [TB9, 1-[2-hydroxy-3-(6-hydroperoxy-3,7-dimethyl-2,7-octadienyl)-4-methoxyphenyl]-3-(4-hydroxyphenyl)-2-propen-1-one]
activation at 10 µM (3T3-L1 cells): > 100% | activation at 3 µM [1]: 15 to 30% | activation at 10 µM [1]: 15 to 30% | activation at 30 µM [1]: 30 to 60%

COc1ccc(C(=O)CCc2ccc(O)cc2)c(O)c1CCC(C)C [Compound (C033), 1-(2-hydroxy-3-(3-methylbutyl)-4-methoxyphenyl)-3-(4-hydroxyphenyl)-propan-1-one]
activation at 3 µM (3T3-L1 cells): > 100% | activation at 10 µM (3T3-L1 cells): > 100% | activation at 3 µM [1]: 30 to 60% | activation at 10 µM [1]: 30 to 60% | activation at 30 µM [1]: 60 to 100%

CC(C)=CCc1c(O)ccc(C(=O)/C=C/c2ccc(O)cc2)c1O [Isobavachalcone]
activation at 3 µM (3T3-L1 cells): 30 to 60% | activation at 10 µM (3T3-L1 cells): 60 to 100% | activation at 3 µM [1]: 15 to 30% | activation at 10 µM [1]: 60 to 100% | activation at 30 µM [1]: > 100%

COc1ccc(C(=O)/C=C/c2ccc(O)cc2)c(OC(C)=O)c1C/C=C(\C)CCC=C(C)C [Compound (C064-2), 2′-acetoxy-3′-geranyl-4-hydroxy-4′-methoxychalcone]
activation at 3 µM (3T3-L1 cells): > 100% | activation at 10 µM (3T3-L1 cells): > 100% | activation at 3 µM [1]: 15 to 30% | activation at 10 µM [1]: 30 to 60% | activation at 30 µM [1]: > 100%

O=C(/C=C/c1ccc(Cl)cc1)c1ccccc1OCc1ccccc1 [Compound (C066), 4-chloro-2′-benzyloxychalcone]
activation at 3 µM (3T3-L1 cells): 60 to 100% | activation at 10 µM (3T3-L1 cells): > 100% | activation at 10 µM [1]: 60 to 100% | activation at 30 µM [1]: 60 to 100%

COc1ccc(C(C)=O)c(O)c1Cc1ccccc1 [Compound (C055), 2′-hydroxy-3′-benzyl-4′-methoxyacetophenone]
activation at 3 µM (3T3-L1 cells): 15 to 30% | activation at 10 µM (3T3-L1 cells): 30 to 60% | activation at 3 µM [1]: 15 to 30% | activation at 10 µM [1]: 30 to 60% | activation at 30 µM [1]: 60 to 100%

CCOC(C)(C)C(O)CC/C(C)=C/Cc1c(O)ccc(C(=O)/C=C/c2ccc(O)cc2)c1O (centres unmarked) [TB6, 1-[3-(7-ethoxy-6-hydroxy-3,7-dimethyl-2-octenyl)-2,4-dihydroxyphenyl]-3-(4-hydroxyphenyl)-2-propen-1-one]
activation at 3 µM (3T3-L1 cells): 15 to 30% | activation at 10 µM (3T3-L1 cells): > 100% | activation at 30 µM [1]: 30 to 60%

O=C(/C=C/c1ccc(O)cc1)c1ccc(O)c(Cc2ccccc2)c1O [Compound (C057), 4,2′,4′-trihydroxy-3′-benzylchalcone]
activation at 3 µM (3T3-L1 cells): 30 to 60% | activation at 10 µM (3T3-L1 cells): > 100% | activation at 10 µM [1]: 15 to 30% | activation at 30 µM [1]: > 100%

COc1ccc(C(=O)/C=C/c2ccc(O)cc2)c(O)c1C/C=C(\C)C/C=C/C(C)(C)OO [TB8, 1-[2-hydroxy-3-(7-hydroperoxy-3,7-dimethyl-2,5-octadienyl)-4-methoxyphenyl]-3-(4-hydroxyphenyl)-2-propen-1-one]
activation at 3 µM (3T3-L1 cells): 30 to 60% | activation at 10 µM (3T3-L1 cells): > 100% | activation at 3 µM [1]: 15 to 30% | activation at 10 µM [1]: 60 to 100% | activation at 30 µM [1]: 60 to 100%
